According to the supplement of paper PMC11208160:

Experiment: recombinant UMI read abundance after kanamycin selection (control-corrected) (log10(CPM+1)); higher = more efficient recombination; extreme values may be limits of the assay; sequences stand for … in AGTGCAGAGAAAATCGGCCAGTTTTCTCTGCCTGCAGTCCGCATGCCGTGGGACCCCTTGGGTTCTAACCTGTTGCCTAGATTTATGCAGCGGACTGCCTTTCTCCCAAAGTGATAAACCGG…AGGTTGGTTTCACT; site = the 11-nt donor
Outline: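 After plating on IPTG (0.07 mM) plus kanamycin, or unselected, in two replicates, recombinant UMIs were PCR-amplified across the donor–target junction and sequenced. The cells were Escherichia coli co-electroporated with a UMI-tagged donor and donor-binding-loop pair library and a target plasmid with a fixed target and T7-inducible IS621 bridge recombinase. Values are log10(CPM+1), with CPM averaged over replicates and scaled by control-derived factors.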
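Also: IS621 bridge recombinase in Escherichia coli cells against a fixed T5 target plasmid.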

Sequence	recombinant UMI read abundance (log10)
GCCACACCATGGACCGGTTTTCCCGGTAATCCGTATTTGTA (site GCCACTCCTTA)	0.0198
GCCACGGCATGGACCGGTTTTCCCGGTAATCCGTATTTGTA (site GCCACGACTTA)	1.24
GCCACGGCATGGACCGGTTTTCCCGGTAATCCGTATTTGTA (site GCCACGCCTTA)	0.106
GCCACGGCATGGACCGGTTTTCCCGGTAATCCGTATTTGTA (site GCCACGGCTTA)	1.62
GCCACGGCATGGACCGGTTTTCCCGGTAATCCGTATTTGTA (site GCCACGTCTTA)	0.163
GCCAGCGCATGGACCGGTTTTCCCGGTAATCCGTATTTGCC (site GCCAGCGCTGG)	1.98
GCCCCGTCATGGACCGGTTTTCCCGGTAATCCGTATTTGAT (site GCCCCGTCTAT)	2
GCCCCTTCATGGACCGGTTTTCCCGGTAATCCGTATTTGGG (site GCCCCTTCTCC)	0.712
GCCGACACATGGACCGGTTTTCCCGGTAATCCGTATTTGTA (site GCCGACACTTA)	1.4
GCCGATTCATGGACCGGTTTTCCCGGTAATCCGTATTTGCT (site GCCGATTCTAG)	1.88
GCCGCCCCATGGACCGGTTTTCCCGGTAATCCGTATTTGGC (site GCCGCCCCTGC)	0
GCCGCTTCATGGACCGGTTTTCCCGGTAATCCGTATTTGGA (site GCCGCTTCTTC)	1.23
GCCGGGCCATGGACCGGTTTTCCCGGTAATCCGTATTTGCA (site GCCGGGCCTTG)	0
GCCGTACCATGGACCGGTTTTCCCGGTAATCCGTATTTGTT (site GCCGTACCTAA)	0.0103
GCCTAGCCATGGACCGGTTTTCCCGGTAATCCGTATTTGTG (site GCCTAGCCTCA)	0.155
GCCTATACATGGACCGGTTTTCCCGGTAATCCGTATTTGAC (site GCCTATACTGT)	2.21
GCCTGCCCATGGACCGGTTTTCCCGGTAATCCGTATTTGAT (site GCATGCCCTAT)	0.0137
GCCTGCCCATGGACCGGTTTTCCCGGTAATCCGTATTTGAT (site GCCTGCCCTAT)	0.201
GCCTGCCCATGGACCGGTTTTCCCGGTAATCCGTATTTGAT (site GCGTGCCCTAT)	0.0203
GCCTGCCCATGGACCGGTTTTCCCGGTAATCCGTATTTGAT (site GCTTGCCCTAT)	0.00989
GCGAAAACATGGACCGGTTTTCCCGGTAATCCGTATTTGAT (site GCGAAAACTAA)	0
GCGAAAACATGGACCGGTTTTCCCGGTAATCCGTATTTGAT (site GCGAAAACTAC)	0.0215
GCGAAAACATGGACCGGTTTTCCCGGTAATCCGTATTTGAT (site GCGAAAACTAG)	0
GCGAAAACATGGACCGGTTTTCCCGGTAATCCGTATTTGAT (site GCGAAAACTAT)	1.66
GCGAAAACATGGACCGGTTTTCCCGGTAATCCGTATTTGTT (site GCGAAAACTAA)	2.31

Sequence	recombinant UMI read abundance (log10)
GCGAAAACATGGACCGGTTTTCCCGGTAATCCGTATTTGTT (site GCGAAAACTAC)	0
GCGAAAACATGGACCGGTTTTCCCGGTAATCCGTATTTGTT (site GCGAAAACTAG)	1.18
GCGAAAACATGGACCGGTTTTCCCGGTAATCCGTATTTGTT (site GCGAAAACTAT)	0
GCGAAACCATGGACCGGTTTTCCCGGTAATCCGTATTTGCT (site GCGAAAACTAG)	0
GCGAAACCATGGACCGGTTTTCCCGGTAATCCGTATTTGCT (site GCGAAACCTAG)	0
GCGAAACCATGGACCGGTTTTCCCGGTAATCCGTATTTGCT (site GCGAAAGCTAG)	0
GCGAAACCATGGACCGGTTTTCCCGGTAATCCGTATTTGCT (site GCGAAATCTAG)	0
GCGAAGCCATGGACCGGTTTTCCCGGTAATCCGTATTTGGT (site GCGAAGCCTAC)	0.885
GCGAAGCCATGGACCGGTTTTCCCGGTAATCCGTATTTGGT (site GCGAAGCCTCC)	0.00425
GCGAAGCCATGGACCGGTTTTCCCGGTAATCCGTATTTGGT (site GCGAAGCCTGC)	0
GCGAAGCCATGGACCGGTTTTCCCGGTAATCCGTATTTGGT (site GCGAAGCCTTC)	0.234
GCGAAGTCATGGACCGGTTTTCCCGGTAATCCGTATTTGGG (site GCGAAGACTCC)	0.283
GCGAAGTCATGGACCGGTTTTCCCGGTAATCCGTATTTGGG (site GCGAAGCCTCC)	0.0096
GCGAAGTCATGGACCGGTTTTCCCGGTAATCCGTATTTGGG (site GCGAAGGCTCC)	0.019
GCGAAGTCATGGACCGGTTTTCCCGGTAATCCGTATTTGGG (site GCGAAGTCTCC)	1.21
GCGACTACATGGACCGGTTTTCCCGGTAATCCGTATTTGGC (site GCGACTACTGC)	1.97
GCGACTGCATGGACCGGTTTTCCCGGTAATCCGTATTTGCC (site GCAACTGCTGG)	2
GCGACTGCATGGACCGGTTTTCCCGGTAATCCGTATTTGCC (site GCCACTGCTGG)	0.516
GCGACTGCATGGACCGGTTTTCCCGGTAATCCGTATTTGCC (site GCGACTGCTGG)	1.65
GCGACTGCATGGACCGGTTTTCCCGGTAATCCGTATTTGCC (site GCTACTGCTGG)	0
GCGATGCCATGGACCGGTTTTCCCGGTAATCCGTATTTGGG (site GCGAAGCCTCC)	0.00846
GCGATGCCATGGACCGGTTTTCCCGGTAATCCGTATTTGGG (site GCGACGCCTCC)	0.0196
GCGATGCCATGGACCGGTTTTCCCGGTAATCCGTATTTGGG (site GCGAGGCCTCC)	0.0186
GCGATGCCATGGACCGGTTTTCCCGGTAATCCGTATTTGGG (site GCGATGCCTCC)	0.0291
GCGCAAACATGGACCGGTTTTCCCGGTAATCCGTATTTGCT (site GCGAAAACTAG)	0

Sequence	recombinant UMI read abundance (log10)
GCGCAAACATGGACCGGTTTTCCCGGTAATCCGTATTTGCT (site GCGCAAACTAG)	1.59
GCGCAAACATGGACCGGTTTTCCCGGTAATCCGTATTTGCT (site GCGGAAACTAG)	0
GCGCAAACATGGACCGGTTTTCCCGGTAATCCGTATTTGCT (site GCGTAAACTAG)	0
GCGCCCACATGGACCGGTTTTCCCGGTAATCCGTATTTGTG (site GCGCCCACTCA)	0.0198
GCGCCTACATGGACCGGTTTTCCCGGTAATCCGTATTTGTT (site GCGCCTACTAA)	0.013
GCGCGAGCATGGACCGGTTTTCCCGGTAATCCGTATTTGGG (site GCGCGAGCTCC)	0.163
GCGCTCACATGGACCGGTTTTCCCGGTAATCCGTATTTGAT (site GAGCTCACTAT)	0.12
GCGCTCACATGGACCGGTTTTCCCGGTAATCCGTATTTGAT (site GCGCTCACTAT)	2.21
GCGCTCACATGGACCGGTTTTCCCGGTAATCCGTATTTGAT (site GGGCTCACTAT)	0.00525
GCGCTCACATGGACCGGTTTTCCCGGTAATCCGTATTTGAT (site GTGCTCACTAT)	0.28
GCGGAAGCATGGACCGGTTTTCCCGGTAATCCGTATTTGGT (site GCGGAAGCTAC)	1.72
GCGGATGCATGGACCGGTTTTCCCGGTAATCCGTATTTGAA (site GCGGATGCTTT)	2.38
GCGGCACCATGGACCGGTTTTCCCGGTAATCCGTATTTGCA (site GAGGCACCTTG)	0.00511
GCGGCACCATGGACCGGTTTTCCCGGTAATCCGTATTTGCA (site GCGGCACCTTG)	0
GCGGCACCATGGACCGGTTTTCCCGGTAATCCGTATTTGCA (site GGGGCACCTTG)	0.008
GCGGCACCATGGACCGGTTTTCCCGGTAATCCGTATTTGCA (site GTGGCACCTTG)	0
GCGGCTACATGGACCGGTTTTCCCGGTAATCCGTATTTGTC (site GCGGCTACTGA)	2.67
GCGGCTTCATGGACCGGTTTTCCCGGTAATCCGTATTTGTC (site GCGGCTTCTGA)	1.81
GCGGGCACATGGACCGGTTTTCCCGGTAATCCGTATTTGTG (site GCGGGCACTCA)	0.836
GCGGTGCCATGGACCGGTTTTCCCGGTAATCCGTATTTGGC (site GCGGTGCCTGC)	0
GCGGTGTCATGGACCGGTTTTCCCGGTAATCCGTATTTGAA (site GCGGTGTCTTT)	2.41
GCGTATTCATGGACCGGTTTTCCCGGTAATCCGTATTTGCC (site GCGTATTCTGG)	2.14
GCGTATTCATGGACCGGTTTTCCCGGTAATCCGTATTTGTG (site GCGTATTCTCA)	2.49
GCGTCGGCATGGACCGGTTTTCCCGGTAATCCGTATTTGGA (site GCGTCGGCTTC)	0.519
GCGTGCCCATGGACCGGTTTTCCCGGTAATCCGTATTTGAT (site GCATGCCCTAT)	0.417
